Experimental data: the supplement of paper PMC10307832

Tests used:
Assay in all cases: relative viability (nuclei count vs DMSO), 5 days (fraction); higher = more cells survive
Bortezomib + AZD7762 = compound: CC(C)C[C@H](NC(=O)[C@H](Cc1ccccc1)NC(=O)c1cnccn1)B(O)O [Bortezomib] + NC(=O)Nc1cc(-c2cccc(F)c2)sc1C(=O)N[C@H]1CCCNC1 [AZD7762] (partner 0.2 µM)
In short: (§1)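 After 5 days of treatment, lung cancer cells in 1536-well plates were fixed and stained in a single step (final 0.05% Triton X-100, 1% formaldehyde, 1 ug/ml Hoechst) and their nuclei counted on 4× images. Treatment had been applied by pin tool the day after seeding as one drug alone or as a fixed anchor-drug dose with five library-drug doses (not always all listed) in √10 steps. Relative viability is the nuclei count of treated wells divided by that of vehicle wells, and values are medians of duplicate plates.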

Bortezomib + OSI-027 = compound: CC(C)C[C@H](NC(=O)[C@H](Cc1ccccc1)NC(=O)c1cnccn1)B(O)O [Bortezomib] + COc1cccc2cc(-c3nc([C@H]4CC[C@H](C(=O)O)CC4)n4ncnc(N)c34)[nH]c12 [OSI-027] (partner 0.5 µM)
In short: as §1

[1] = compound: CC1=CC(=NN1)NC2=CC(=NC(=N2)/C=C/C3=CC=CC=C3)N4CCN(CC4)C + C[C@]1(O)C[C@@H](c2nc(-c3ccc4ccc(-c5ccccc5)nc4c3)c3c(N)nccn32)C1 [Linsitinib] (partner 1 µM)
In short: as §1

[2] = compound: CC1=CC(=NN1)NC2=CC(=NC(=N2)/C=C/C3=CC=CC=C3)N4CCN(CC4)C + CS(=O)(=O)N1CCN(Cc2cc3nc(-c4cccc5[nH]ncc45)nc(N4CCOCC4)c3s2)CC1 [Pictilisib] (partner 1 µM)
In short: as §1

Cell Line	relative viability (Bortezomib + AZD7762; first compound 0.0002 µM)	relative viability (Bortezomib + AZD7762; first compound 0.002 µM)	relative viability (Bortezomib + AZD7762; first compound 0.006325 µM)	relative viability (Bortezomib + AZD7762; first compound 0.02 µM)	relative viability (Bortezomib + OSI-027; first compound 0.0002 µM)	relative viability (Bortezomib + OSI-027; first compound 0.000632 µM)	relative viability (Bortezomib + OSI-027; first compound 0.002 µM)	relative viability (Bortezomib + OSI-027; first compound 0.006325 µM)	relative viability (Bortezomib + OSI-027; first compound 0.02 µM)	relative viability ([1]; first compound 0.08 µM)	relative viability ([1]; first compound 0.253 µM)	relative viability ([1]; first compound 0.8 µM)	relative viability ([1]; first compound 2.53 µM)	relative viability ([1]; first compound 8 µM)	relative viability ([2]; first compound 0.08 µM)	relative viability ([2]; first compound 0.253 µM)	relative viability ([2]; first compound 0.8 µM)	relative viability ([2]; first compound 2.53 µM)	relative viability ([2]; first compound 8 µM)	relative viability (Bortezomib + AZD7762; first compound 0.000632 µM)
LCLC-97TM1	0.179	0.32	0.234	0.0966	0.475	0.336	0.583	0.233	0.129	0.185	0.205	0.204	0.165	0.112	0.171	0.102	0.161	0.105	0.0788	–
NCI-H838	0.878	0.9	0.682	0.622	0.355	0.363	0.44	0.178	0.131	0.999	1.25	0.857	0.747	0.122	0.463	0.488	0.471	0.193	0.105	0.925
NCI-H2347	0.888	0.73	0.553	0.276	0.559	0.367	0.291	0.182	0.194	0.844	1.05	0.99	0.93	0.614	0.63	0.342	0.777	0.417	0.333	0.695
NCI-H441	1.04	0.754	0.117	0.134	0.648	0.38	0.233	0.154	0.188	0.483	0.584	0.444	0.196	0.0922	0.463	0.554	0.265	0.172	0.0803	1.09
NCI-H358	0.615	0.619	0.241	0.225	0.849	0.547	0.703	0.0722	0.0716	0.733	0.736	0.331	0.14	0.11	0.296	0.29	0.293	0.138	0.108	0.285
NCI-H2405	0.699	0.919	0.165	0.159	0.635	0.589	0.661	0.319	0.205	0.951	0.674	1.06	0.499	0.164	0.473	0.32	0.452	0.179	0.133	0.714
HCC-15	1.04	1.17	0.763	0.127	0.677	0.707	0.667	0.0893	0.0735	0.908	0.967	0.853	0.469	0.149	0.739	0.548	0.667	0.299	0.104	1.14
